# Test results from US12344610B2, “APOL1 inhibitors and methods of use” (Maze Therapeutics, Inc., priority 2022, dated 2025).
# Experiments:
# Type in all cases: cell-based
# [1] = tested on: Trypanosoma brucei Lister 427 VSG221 with APOL1 G2 recombinant protein; experiment: APOL1 G2 trypanosome cell rescue assay (Example B5); details: Trypanosoma brucei, 20 h, read-out: APOL1 G2 Trypanosome Rescue EC50, Trypanosoma brucei Lister 427 VSG221 with APOL1 G2 recombinant protein, 20 hours, CellTiter-Glo; geometric mean of at least 2 assay runs; † = single assay run
# Method in brief: (§1)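 Recombinant APOL1 protein, dispensed from a 2 μg/mL stock, and 250 T. brucei per well were co-incubated with test compound (0.4% DMSO) for 20 h. Viability: CellTiter-Glo luminescence.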
# [2] = tested on: Trypanosoma brucei Lister 427 VSG221 with APOL1 G1 recombinant protein; experiment: APOL1 G1 trypanosome cell rescue assay (Example B5); details: Trypanosoma brucei, 20 h, read-out: APOL1 G1 Trypanosome Rescue EC50, Trypanosoma brucei Lister 427 VSG221 with APOL1 G1 recombinant protein, 20 hours, CellTiter-Glo; geometric mean of at least 2 assay runs; † = single assay run
# Method in brief: as §1
# [3] = tested on: HEK293 clonal cell line overexpressing APOL1 G1; experiment: APOL1 G1 HEK293 cell rescue assay (Example B3); details: Homo sapiens, HEK293, HEK293 clonal line overexpressing APOL1 G1; geometric mean of at least 2 runs; † = single run; ¥ = concentration at 50% rescue estimated (no sigmoidal curve)
# Method in brief: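 Rescue of cell death caused by APOL1 G1 overexpression was measured in a clonal HEK293 line. Compounds were tested in duplicate on one plate, and EC50s were geometric means across at least two runs on different days. Some values are estimated 50%-rescue concentrations where curve fitting failed.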
structure (smiles),measurement,setting,value
"O=C(c1ccc(OCCN2CCC3(CC2)C(=O)Nc2ccc(Cl)cc23)cc1F)N1CCC1 [Compound 234, 1′-{2-[4-(azetidine-1-carbonyl)-3-fluorophenoxy]ethyl}-5-chloro-1,2-dihydrospiro[indole-3,4′-piperidin]-2-one]",EC50,[1],0.146 µM
same,EC50,[2],0.475 µM
same,EC50,[3],0.233 µM
"O=C(c1ccc(OCCN2CCC3(CC2)C(=O)Nc2ccc(Cl)cc23)cc1F)N1CC(O)C1 [Compound 235, 5-chloro-1′-{2-[3-fluoro-4-(3-hydroxyazetidine-1-carbonyl)phenoxy]ethyl}-1,2-dihydrospiro[indole-3,4′-piperidin]-2-one]",EC50,[1],0.132 µM
same,EC50,[2],0.452 µM
same,EC50,[3],0.268 µM
"NC1CN(C(=O)c2ccc(OCCN3CCC4(CC3)C(=O)Nc3ccc(Cl)cc34)cc2F)C1 [Compound 236, 1′-{2-[4-(3-aminoazetidine-1-carbonyl)-3-fluorophenoxy]ethyl}-5-chloro-1,2-dihydrospiro[indole-3,4′-piperidin]-2-one]",EC50,[1],0.397 µM
same,EC50,[2],0.866 µM
same,EC50,[3],0.134 µM
"CS(=O)(=O)NC1CN(C(=O)c2ccc(OCCN3CCC4(CC3)C(=O)Nc3ccc(Cl)cc34)cc2F)C1 [Compound 237, N-{1-[4-(2-{5-chloro-2-oxo-1,2-dihydrospiro[indole-3,4′-piperidin]-1′-yl}ethoxy)-2-fluorobenzoyl]azetidin-3-yl} methanesulfonamide]",EC50,[1],0.0572 µM
same,EC50,[2],0.196 µM
same,EC50,[3],> 3.25 µM
"N#Cc1ccc2c(c1)C1(CCN(CCOc3ccc(C(N)=O)c(F)c3)CC1)C(=O)N2 [Compound 238, 4-(2-{5-cyano-2-oxo-1,2-dihydrospiro[indole-3,4′-piperidin]-1′-yl}ethoxy)-2-fluorobenzamide]",EC50,[1],0.763 µM
same,EC50,[2],> 4 µM
same,EC50,[3],0.244 µM
"O=C(c1ccc(OCCN2CCC3(CC2)C(=O)Nc2ccc(Cl)cc23)cc1F)N1CC2(C1)CS(=O)(=O)C2 [Compound 239, 6-[4-(2-{5-chloro-2-oxo-1,2-dihydrospiro[indole-3,4′-piperidin]-1′-yl}ethoxy)-2-fluorobenzoyl]-2λ^6-thia-6-azaspiro[3.3]heptane-2,2-dione]",EC50,[1],0.0148 µM
same,EC50,[2],0.0488 µM
same,EC50,[3],0.191 µM
"Cc1n[nH]cc1-c1ccc(OCCN2CCC3(CC2)C(=O)Nc2ccc(Cl)cc23)cc1 [Compound 244, 5-chloro-1′-{2-[4-(5-methyl-1H-pyrazol-4-yl)phenoxy]ethyl}-1,2-dihydrospiro[indole-3,4′-piperidin]-2-one]",EC50,[1],0.0493 µM
same,EC50,[2],0.151 µM
same,EC50,[3],0.189 µM
"CNC(=O)N1CCc2cc(OCCN3CCC4(CC3)C(=O)Nc3ccc(Cl)cc34)ccc2C1 [Compound 245, 6-(2-{5-chloro-2-oxo-1,2-dihydrospiro[indole-3,4′-piperidin]-1′-yl}ethoxy)-N-methyl-1,2,3,4-tetrahydroisoquinoline-2-carboxamide]",EC50,[1],0.102 µM
same,EC50,[2],0.379 µM
same,EC50,[3],0.301 µM
"Cn1c(=O)[nH]c2cc(OCCN3CCC4(CC3)C(=O)Nc3ccc(Cl)cc34)cnc21 [Compound 247, 5-chloro-1′-[2-({3-methyl-2-oxo-1H,2H,3H-imidazo[4,5-b]pyridin-6-yl}oxy)ethyl]-1,2-dihydrospiro[indole-3,4′-piperidin]-2-one]",EC50,[1],0.081 µM
same,EC50,[2],0.246 µM
same,EC50,[3],0.27 µM
"O=C1Nc2ccc(Cl)cc2C12CCN(CCOc1ccc(S(=O)(=O)C3(CO)CC3)nc1)CC2 [Compound 248, 5-chloro-1′-{2-[(6-{[1-(hydroxymethyl)cyclopropyl]sulfonyl}pyridin-3-yl)oxy]ethyl}-1,2-dihydrospiro[indole-3,4′-piperidin]-2-one]",EC50,[1],0.0379 µM
same,EC50,[2],0.126 µM
same,EC50,[3],0.219 µM
"NC(=O)c1ccc(OCCN2CCC3(CC2)C(=O)Nc2ccc(Cl)cc23)cc1C(F)F [Compound 249, 4-(2-{5-chloro-2-oxo-1,2-dihydrospiro[indole-3,4′-piperidin]-1′-yl}ethoxy)-2-(difluoromethyl)benzamide]",EC50,[1],0.0221 µM
same,EC50,[2],0.0738 µM
same,EC50,[3],0.0706 µM
"N#Cc1ccc2c(c1)C1(CCN(CCOc3ccc(C(N)=O)c(C(F)F)c3)CC1)C(=O)N2 [Compound 250, 4-(2-{5-cyano-2-oxo-1,2-dihydrospiro[indole-3,4′-piperidin]-1′-yl}ethoxy)-2-(difluoromethyl)benzamide]",EC50,[1],0.194 µM
same,EC50,[2],0.678 µM
same,EC50,[3],0.192 µM
"CN1C(=O)C2(CCN(CCOc3ccc(C4(S(C)(=O)=O)COC4)cc3)CC2)c2cc(C#N)ccc21 [Compound 251, 1′-{2-[4-(3-methanesulfonyloxetan-3-yl)phenoxy]ethyl}-1-methyl-2-oxo-1,2-dihydrospiro[indole-3,4′-piperidine]-5-carbonitrile]",EC50,[1],0.24 µM
same,EC50,[2],1.12 µM
same,EC50,[3],~0.323 µM
"CN(C)C(=O)C1(c2ccc(OCCN3CCC4(CC3)C(=O)Nc3ccc(C#N)cc34)cc2)COC1 [Compound 254, 3-[4-(2-{5-cyano-2-oxo-1,2-dihydrospiro[indole-3,4′-piperidin]-1′-yl}ethoxy)phenyl]-N,N-dimethyloxetane-3-carboxamide]",EC50,[1],0.252 µM
same,EC50,[2],0.951 µM
same,EC50,[3],2.04 µM
"CNC(=O)C1(c2ccc(OCCN3CCC4(CC3)C(=O)Nc3ccc(C#N)cc34)cc2)COC1 [Compound 255, 3-[4-(2-{5-cyano-2-oxo-1,2-dihydrospiro[indole-3,4′-piperidin]-1′-yl}ethoxy)phenyl]-N-methyloxetane-3-carboxamide]",EC50,[1],0.575 µM
same,EC50,[2],2.92 µM
same,EC50,[3],~2.9 µM
"O=C(c1c(F)cc(OCCN2CCC3(CC2)C(=O)Nc2ccc(Cl)cc23)cc1F)N1CCS(=O)(=O)CC1 [Compound 259, 4-[4-(2-{5-chloro-2-oxo-1,2-dihydrospiro[indole-3,4′-piperidin]-1′-yl}ethoxy)-2,6-difluorobenzoyl]-1λ^6-thiomorpholine-1,1-dione]",EC50,[1],0.0255 µM
same,EC50,[2],0.0922 µM
same,EC50,[3],0.0925 µM
"CN1C(=O)C2(CCN(CCOc3cc(F)c(C(=O)N4CCS(=O)(=O)CC4)c(F)c3)CC2)c2cc(C#N)ccc21 [Compound 260, 1′-{2-[4-(1,1-dioxo-1λ^6-thiomorpholine-4-carbonyl)-3,5-difluorophenoxy]ethyl}-1-methyl-2-oxo-1,2-dihydrospiro[indole-3,4′-piperidine]-5-carbonitrile]",EC50,[1],0.11 µM
same,EC50,[2],0.397 µM
same,EC50,[3],0.248 µM
"CN1C(=O)C2(CCN(CCOc3ccc(C(=O)N4CCS(=O)(=O)CC4)c(C(F)(F)F)c3)CC2)c2cc(C#N)ccc21 [Compound 261, 1′-{2-[4-(1,1-dioxo-1λ^6-thiomorpholine-4-carbonyl)-3-(trifluoromethyl)phenoxy]ethyl}-1-methyl-2-oxo-1,2-dihydrospiro[indole-3,4′-piperidine]-5-carbonitrile]",EC50,[1],0.0296 µM
same,EC50,[2],0.1 µM
same,EC50,[3],0.167 µM
"CS(=O)(=O)c1ccc(OCCN2CCC3(CC2)C(=O)N(CCO)c2ccc(Cl)cc23)cc1C(F)F [Compound 265, 5-chloro-1′-{2-[3-(difluoromethyl)-4-methanesulfonylphenoxy]ethyl}-1-(2-hydroxyethyl)-1,2-dihydrospiro[indole-3,4′-piperidin]-2-one]",EC50,[1],0.0231 µM
same,EC50,[2],0.105 µM
same,EC50,[3],0.132 µM
"CS(=O)(=O)c1ccc(OCCN2CCC3(CC2)C(=O)N(CCO)c2ccc(C#N)cc23)cc1C(F)F [Compound 266, 1′-{2-[3-(difluoromethyl)-4-methanesulfonylphenoxy]ethyl}-1-(2-hydroxyethyl)-2-oxo-1,2-dihydrospiro[indole-3,4′-piperidine]-5-carbonitrile]",EC50,[1],0.0771 µM
same,EC50,[2],0.407 µM
same,EC50,[3],0.353 µM
"O=C(c1ccc(OCCN2CCC3(CC2)C(=O)Nc2ccc(Cl)cc23)cc1C(F)(F)F)N1CCS(=O)(=O)CC1 [Compound 272, 4-[4-(2-{5-chloro-2-oxo-1,2-dihydrospiro[indole-3,4′-piperidin]-1′-yl}ethoxy)-2-(trifluoromethyl)benzoyl]-1λ^6-thiomorpholine-1,1-dione]",EC50,[1],0.0189 µM
same,EC50,[2],0.0732 µM
same,EC50,[3],0.148 µM
"CS(=O)(=O)N1CC2(CN(C(=O)c3ccc(OCCN4CCC5(CC4)C(=O)Nc4ccc(Cl)cc45)cc3F)C2)C1 [Compound 273, 5-chloro-1′-[2-(3-fluoro-4-{6-methanesulfonyl-2,6-diazaspiro[3.3]heptane-2-carbonyl}phenoxy)ethyl]-1,2-dihydrospiro[indole-3,4′-piperidin]-2-one]",EC50,[1],0.0258 µM
same,EC50,[2],0.0716 µM
same,EC50,[3],0.206 µM
"C[C@]1(O)C[C@@H](N2C(=O)CCc3cc(OCCN4CCC5(CC4)C(=O)Nc4ccc(C(F)F)cc45)cnc32)C1 [Compound 274, 5-(difluoromethyl)-1′-[2-({7-oxo-8-[(cis)-3-hydroxy-3-methylcyclobutyl]-5,6,7,8-tetrahydro-1,8-naphthyridin-3-yl}oxy)ethyl]-1,2-dihydrospiro[indole-3,4′-piperidin]-2-one]",EC50,[1],0.0172 µM
same,EC50,[2],0.0584 µM
same,EC50,[3],0.0999 µM
